We go through 3 compounds from US5994308A, “Broad spectrum antimicrobial peptides containing a tryptophan triplet and methods of use” (Board of Trustees of Southern Illinois University, priority 1997, dated 1999).

One test deals with Candida albicans. Type of test: cell-based. The note with it: 24 h. On the procedure: (§1) The minimum inhibitory concentration (MIC) was determined by growing fungal strains in YG media until the fungi reached logarithmic phase. The cells were diluted in YG medium then placed in a 96-well plate along with a series of 2-fold dilutions of the peptides. The plate was then incubated at 37° C. for 24 hours. Minimum inhibitory growth was defined as the lowest concentration at which there was no fungal growth.

Another test has as its system Aspergillus fumigatus. Type of test: cell-based. The note with it: 24 h. On the procedure: as §1

SMILES strings stand for the structures. Where a SMILES comes first, the peptide text is derived from it.

Regarding `CC(C)C[C@H](NC(=O)[C@H](Cc1ccccc1)NC(=O)[C@@H]1CCCN1C(=O)[C@H](Cc1c[nH]c2ccccc12)NC(=O)[C@H](Cc1c[nH]c2ccccc12)NC(=O)[C@H](Cc1c[nH]c2ccccc12)NC(=O)[C@@H]1CCCN1C(=O)[C@H](Cc1ccccc1)NC(=O)[C@H](CCCNC(=N)N)NC(=O)[C@H](CCCNC(=N)N)NC(=O)[C@@H](N)C(C)C)C(=O)N[C@@H](CCCNC(=N)N)C(=O)N[C@@H](CCCNC(=N)N)C(=O)O` [Peptide 1, VRRFPWWWPFLRR], in the test with Candida albicans, the “MINIMUM INHIBITORY CONCENTRATION Candida albicans” value was 1000 µg/mL. Besides, the “MINIMUM INHIBITORY CONCENTRATION Aspergillus fumigatus” value in the test with Aspergillus fumigatus came to 250 µg/mL.

Consider `CC(C)C[C@H](NC(=O)[C@H](Cc1ccccc1)NC(=O)[C@@H]1CCCN1C(=O)[C@H](Cc1c[nH]c2ccccc12)NC(=O)[C@H](Cc1c[nH]c2ccccc12)NC(=O)[C@H](Cc1c[nH]c2ccccc12)NC(=O)[C@@H]1CCCN1C(=O)[C@H](Cc1ccccc1)NC(=O)[C@@H](N)CCCNC(=N)N)C(=O)N[C@@H](CCCNC(=N)N)C(=O)O` [Peptide 3, RFPWWWPFLR] (H-RFPWWWPFLR-OH), for which, in the test on Aspergillus fumigatus, the “MINIMUM INHIBITORY CONCENTRATION Aspergillus fumigatus” value came out at 500 µg/mL.

For `N[C@@H](Cc1ccccc1)C(=O)N1CCC[C@H]1C(=O)N[C@@H](Cc1c[nH]c2ccccc12)C(=O)N[C@@H](Cc1c[nH]c2ccccc12)C(=O)N[C@@H](Cc1c[nH]c2ccccc12)C(=O)N1CCC[C@H]1C(=O)N[C@@H](Cc1ccccc1)C(=O)O` [Peptide 4, FPWWWPF] (H-FPWWWPF-OH), in the test on Aspergillus fumigatus, the “MINIMUM INHIBITORY CONCENTRATION Aspergillus fumigatus” value was determined as 500 µg/mL.
